Key:
[1] = target: T1, Potassium channel subfamily K member 2 (Rattus norvegicus) (UniProt Q920B6); conditions: CHO, 10 uM
T1 sequence (whole entry): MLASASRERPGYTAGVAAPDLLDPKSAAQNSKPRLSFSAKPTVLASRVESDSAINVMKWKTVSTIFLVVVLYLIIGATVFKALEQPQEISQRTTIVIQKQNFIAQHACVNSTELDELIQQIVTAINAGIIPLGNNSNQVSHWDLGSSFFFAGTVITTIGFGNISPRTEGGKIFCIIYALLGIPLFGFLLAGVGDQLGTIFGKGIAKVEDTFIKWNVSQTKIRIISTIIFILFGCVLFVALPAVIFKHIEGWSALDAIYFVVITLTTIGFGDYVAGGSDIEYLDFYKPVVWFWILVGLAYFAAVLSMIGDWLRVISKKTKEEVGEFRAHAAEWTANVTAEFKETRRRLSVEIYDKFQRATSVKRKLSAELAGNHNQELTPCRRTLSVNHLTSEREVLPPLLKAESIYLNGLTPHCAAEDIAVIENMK
Description: Inhibition of rat TREK1 expressed in CHO cells assessed as reversible current depression at 10 uM

[2] = target: T2, Potassium channel subfamily K member 2 (Rattus norvegicus, UniProt Q920B6); assay: Inhibition of rat TREK1 expressed in CHO cells assessed as reversible current depression; format: cell-based
T2 sequence (Q920B6 whole entry): T1 sequence (whole entry)

[3] = target: T3, Potassium channel subfamily K member 10 (Homo sapiens, UniProt P57789); assay: Inhibition of TREK2 (unknown origin) expressed in oocytes assessed as reduction in channel currents; format: cell-based
T3 sequence (P57789 whole entry): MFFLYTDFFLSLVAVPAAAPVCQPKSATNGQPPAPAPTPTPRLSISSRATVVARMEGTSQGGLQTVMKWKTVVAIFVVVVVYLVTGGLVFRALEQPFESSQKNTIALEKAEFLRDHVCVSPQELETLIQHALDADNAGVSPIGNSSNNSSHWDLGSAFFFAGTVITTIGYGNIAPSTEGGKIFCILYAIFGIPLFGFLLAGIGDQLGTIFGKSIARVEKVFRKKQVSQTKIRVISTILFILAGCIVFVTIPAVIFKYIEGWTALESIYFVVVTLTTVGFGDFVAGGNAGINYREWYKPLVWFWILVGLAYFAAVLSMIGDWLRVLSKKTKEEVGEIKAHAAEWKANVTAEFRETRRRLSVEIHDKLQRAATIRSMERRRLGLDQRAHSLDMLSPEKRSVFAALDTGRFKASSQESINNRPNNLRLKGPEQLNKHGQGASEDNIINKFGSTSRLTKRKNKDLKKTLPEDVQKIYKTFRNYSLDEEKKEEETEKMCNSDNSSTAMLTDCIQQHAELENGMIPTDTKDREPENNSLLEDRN

[4] = target: T3, Potassium channel subfamily K member 10; assay: Inhibition of TREK2 (unknown origin) expressed in HEK293 cells assessed as reduction in channel currents; format: cell-based
[5] = target: T4, Potassium channel subfamily K member 2 (Homo sapiens, UniProt O95069); assay: Inhibition of human TREK1 expressed in HEK293 cells assessed as reduction in channel currents; format: cell-based
T4 sequence (O95069 whole entry): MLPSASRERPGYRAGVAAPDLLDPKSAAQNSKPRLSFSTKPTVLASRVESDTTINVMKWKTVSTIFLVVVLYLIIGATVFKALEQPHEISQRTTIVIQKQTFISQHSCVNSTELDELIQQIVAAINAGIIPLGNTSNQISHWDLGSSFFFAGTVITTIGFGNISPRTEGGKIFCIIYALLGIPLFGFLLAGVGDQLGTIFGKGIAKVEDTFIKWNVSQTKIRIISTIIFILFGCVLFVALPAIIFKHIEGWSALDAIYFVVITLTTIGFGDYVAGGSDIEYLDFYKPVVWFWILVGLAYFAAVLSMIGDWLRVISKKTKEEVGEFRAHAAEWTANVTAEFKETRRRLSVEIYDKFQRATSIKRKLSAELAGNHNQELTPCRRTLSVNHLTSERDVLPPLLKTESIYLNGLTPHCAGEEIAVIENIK

[6] = target: T4, Potassium channel subfamily K member 2; assay: Inhibition of human TREK1 expressed in oocytes assessed as reversible current depression; format: cell-based

CCCC[C@@H]1OC(=O)c2ccccc21 [(3S)-BUTYLPHTHALIDE]
inhibition [1]: 70%
IC50 [2]: 0.06 µM

COc1ccccc1OCCNCC(O)COc1cccc2[nH]c3ccccc3c12 (stereo unspecified) [CARVEDILOL]
IC50 [3]: 24 µM
IC50 [4]: 7.6 µM
IC50 [5]: 1.6 µM
IC50 [6]: 20.3 µM
